Reference: US12686854B2, “Method for enhancing secretory function of mesenchymal stem cells and application thereof” (SHANDONG UNIVERSITY, priority 2020, dated 2026)

What was measured:
[1] = test system: germ cells in mouse ovaries; experiment: In vitro ovary culture with VCD injury, DDX4 immunohistochemical staining of germ cells; assay type: cell-based; conditions: 8 days in vitro culture
PI3K-AKT pathway = experiment: In vitro ovary culture with VCD injury, Western blot of p-AKT and AKT; assay type: cell-based; conditions: PD4 mouse ovaries, 4 days in vitro culture, VCD 30 μM injury
Procedure: • S1. The concentrated conditioned medium was collected as described in Example 1. • S2. The solution for dissecting ovary containing 10% FBS and 1% penicillin-streptomycin was prepared in L15 medium. • S3. Ovarian culture preparation was performed. The medium of control group, VCD (30 μM) group, VCD+MSC-CM group and VCD+HA/MSC-CM group were prepared, and the embedded culture chamber was placed in 6-well plate containing 1.5 mL medium per well for 2 hours. • S4. The ovaries of postnatal day 4 (PD4) mice were isolated in freshly prepared dissecting solution under stereoscope. The surrounding tissues and ovarian capsule were gently peeled off, which should move quickly and not damage ovarian tissues. • S5. The obtained ovaries were washed three times with dissecting solution and transferred to an operation table as soon as possible. Before the ovaries were placed in the chambers of each group, the ovaries were washed three times with the corresponding medium of each group. After washing, they were placed in the middle of the culture chambers of each group and placed at intervals. The solution was changed on the second day. After 4 days of in vitro culture, the ovarian tissues were collected to extract protein. • S6. The changes of the expression of p-AKT and AKT protein were detected by Western blot.

C1CC2OC2CC1C1CO1 (stereo not drawn) [VCD, 4-vinylcyclonhexene diepoxide]
ovarian volume ([1]; VCD 30 μM): decreased
number of germ cells (DDX4 staining) ([1]; VCD 30 μM injury): decreased significantly
expression level of p-AKT (PI3K-AKT pathway): decreased significantly
